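These data come from cells grown in 96-well plates and exposed to compound for 48 hours at five concentrations. Here, GI50 denotes the concentration required for 50% inhibition of growth.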 Active and inactive are the calls of the source. Rule as the data show it: active = GI50 up to about 1.1 µM and inactive = higher.
Assays:
Test in all cases: NCI tumour cell line growth inhibition, 48 h
[1] = system: NCI-H226
[2] = system: A549
[3] = system: CAKI-1
[4] = system: MCF7
[5] = system: HCC 2998
[6] = system: NCI-H460
[7] = system: 786-0
[8] = system: NCI-H23
[9] = system: MDA-MB-435
[10] = system: HT-29
[11] = system: MOLT-4
[12] = system: SF-539
[13] = system: UO-31
[14] = system: SNB-75
[15] = system: SK-OV-3
[16] = system: CCRF-CEM
[17] = system: UACC-257
[18] = system: HCT-116
[19] = system: OVCAR-4
[20] = system: DU-145

SMILES | GI50 [1] | GI50 [2] | GI50 [3] | GI50 [4] | GI50 [5] | GI50 [6] | GI50 [7] | GI50 [8] | GI50 [9] | GI50 [10] | GI50 [11] | GI50 [12] | GI50 [13] | GI50 [14] | GI50 [15] | GI50 [16] | GI50 [17] | GI50 [18] | GI50 [19] | GI50 [20]
c1ccc([P+](CC[P+](c2ccccc2)(c2ccccc2)c2ccccc2)(c2ccccc2)c2ccccc2)cc1 | > 56.8 µM (inactive) | 2.49 µM (inactive) | 61.8 µM (inactive) | 32.1 µM (inactive) | 7.78 µM (inactive) | 5.79 µM (inactive) | 21.9 µM (inactive) | 26.3 µM (inactive) | 9.64 µM (inactive) | 23.4 µM (inactive) | 12.6 µM (inactive) | 9.42 µM (inactive) | > 46.1 µM (inactive) | 20.1 µM (inactive) | > 84.9 µM (inactive) | 0.25 µM (active) | 1.19 µM (inactive) | 16.5 µM (inactive) | 34.3 µM (inactive) | 48.9 µM (inactive)
COc1ccccc1C(=O)NCC1CCCN2CCCCC12 (stereo not given) | > 100 µM (inactive) | 93.3 µM (inactive) | > 100 µM (inactive) | > 100 µM (inactive) | > 100 µM (inactive) | > 100 µM (inactive) | > 100 µM (inactive) | > 100 µM (inactive) | > 100 µM (inactive) | > 100 µM (inactive) | > 100 µM (inactive) | > 100 µM (inactive) | > 100 µM (inactive) | > 100 µM (inactive) | > 100 µM (inactive) | > 100 µM (inactive) | > 100 µM (inactive) | > 100 µM (inactive) | > 100 µM (inactive) | > 100 µM (inactive)
Nc1n[nH]c(N)n1 [GUANAZOLE] | 5860 µM (inactive) | 4420 µM (inactive) | 3550 µM (inactive) | 3400 µM (inactive) | 6900 µM (inactive) | 3270 µM (inactive) | 2580 µM (inactive) | 5300 µM (inactive) | > 9750 µM (inactive) | 5060 µM (inactive) | 3170 µM (inactive) | 2510 µM (inactive) | 7030 µM (inactive) | 9250 µM (inactive) | 3210 µM (inactive) | 1720 µM (inactive) | 6430 µM (inactive) | 5980 µM (inactive) | > 9120 µM (inactive) | 5130 µM (inactive)
